By IC50 is commonly meant the midpoint of a concentration-inhibition curve.

The values that follow come from patent US11420973B2, “Amide substituted indole compounds useful as TLR inhibitors” (BRISTOL-MYERS SQUIBB COMPANY, priority 2017, dated 2022).

The target in assay [1] is human TLR8 (Homo sapiens (Human), UniProt Q9NR97). Nature of the assay: TLR8 inhibition reporter assay (HEK-Blue SEAP reporter, R848 stimulation).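 Further: SEAP driven by IFN-β minimal promoter with NF-κB and AP-1 sites, 22 h incubation, compounds 0.05 nM–50 µM, inhibition scaled between agonist plus DMSO and reference inhibitor wells.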 As to conditions: read-out: TLR8 IC50; HEK-Blue cells overexpressing human TLR8, R848 15.9 μM, SEAP reporter. For orientation: A reporter such as luciferase makes a cellular process visible.
Sequence of human TLR8 (Q9NR97 27-1041): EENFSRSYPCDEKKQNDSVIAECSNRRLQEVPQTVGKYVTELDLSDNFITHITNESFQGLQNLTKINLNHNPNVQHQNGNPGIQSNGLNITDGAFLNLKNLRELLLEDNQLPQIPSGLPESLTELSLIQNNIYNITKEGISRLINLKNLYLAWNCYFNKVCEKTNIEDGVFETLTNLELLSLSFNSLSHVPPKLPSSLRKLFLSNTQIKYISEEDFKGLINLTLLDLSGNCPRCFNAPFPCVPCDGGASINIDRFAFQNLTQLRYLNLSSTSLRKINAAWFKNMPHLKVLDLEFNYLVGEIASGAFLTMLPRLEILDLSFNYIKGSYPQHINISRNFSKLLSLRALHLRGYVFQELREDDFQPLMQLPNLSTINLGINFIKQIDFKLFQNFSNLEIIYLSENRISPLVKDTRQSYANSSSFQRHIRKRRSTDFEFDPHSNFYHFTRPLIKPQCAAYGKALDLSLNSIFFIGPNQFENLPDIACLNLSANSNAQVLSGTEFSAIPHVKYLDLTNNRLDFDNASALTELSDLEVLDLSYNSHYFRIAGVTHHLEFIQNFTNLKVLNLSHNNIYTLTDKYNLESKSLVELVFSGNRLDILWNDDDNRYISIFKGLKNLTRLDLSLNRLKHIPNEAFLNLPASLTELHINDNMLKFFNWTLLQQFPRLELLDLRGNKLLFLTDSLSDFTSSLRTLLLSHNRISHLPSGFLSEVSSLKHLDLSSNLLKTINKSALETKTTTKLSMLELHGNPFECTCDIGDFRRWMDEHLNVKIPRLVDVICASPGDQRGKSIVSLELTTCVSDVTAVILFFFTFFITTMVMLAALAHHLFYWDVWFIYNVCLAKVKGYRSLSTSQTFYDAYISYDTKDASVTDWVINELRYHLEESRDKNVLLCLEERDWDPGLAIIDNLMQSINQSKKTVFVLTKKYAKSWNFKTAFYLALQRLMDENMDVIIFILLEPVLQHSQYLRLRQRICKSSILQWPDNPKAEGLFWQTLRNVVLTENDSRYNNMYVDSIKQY
Method: (§1) HEK-Blue™-cells (Invivogen) overexpressing human TLR7, TLR8 or TLR9 receptors were used for screening inhibitors of these receptors using an inducible SEAP (secreted embryonic alkaline phosphatase) reporter gene under the control of the IFN-β minimal promoter fused to five NF-κB and AP-1-binding sites. Briefly, cells are seeded into Greiner 384 well plates (15000 cells per well for TLR7, 20,000 for TLR8 and 25,000 for TLR9) and then treated with test compounds in DMSO to yield a final dose response concentration range of 0.05 nM-50 μM. After a 30 minute compound pre-treatment at room temperature, the cells are then stimulated with a TLR7 ligand (gardiquimod at a final concentration of 7.5 μM), TLR8 ligand (R848 at a final concentration of 15.9 μM) or TLR9 ligand (ODN2006 at a final concentration of 5 nM) to activate NF-κB and AP-1 which induce the production of SEAP. After a 22 hour incubation at 37° C., 5% CO2, SEAP levels are determined with the addition of HEK-Blue™ Detection reagent (Invivogen), a cell culture medium that allows for detection of SEAP, according to manufacturer's specifications.
Assay [2] addresses human TLR9 (Homo sapiens (Human), UniProt Q9NR96). Nature of the assay: TLR9 inhibition reporter assay (HEK-Blue SEAP reporter, ODN2006 stimulation).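 Further: SEAP reporter under IFN-β minimal promoter with five NF-κB and AP-1 sites, 22 h incubation, compounds 0.05 nM–50 µM, inhibition relative to agonist plus DMSO versus known inhibitor.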 The conditions noted are these: read-out: TLR9 IC50; HEK-Blue cells overexpressing human TLR9, ODN2006 5 nM, SEAP reporter.
Method: as §1
Assay [3] concerns the target human TLR7 (Homo sapiens (Human), UniProt Q9NYK1). Put plainly: TLR7 inhibition reporter assay (HEK-Blue SEAP reporter, gardiquimod stimulation). As to conditions: HEK-Blue cells overexpressing human TLR7, gardiquimod 7.5 μM. It is filed as cell-based.
Method: as §1

Sequence of human TLR7 (Q9NYK1 27-1049): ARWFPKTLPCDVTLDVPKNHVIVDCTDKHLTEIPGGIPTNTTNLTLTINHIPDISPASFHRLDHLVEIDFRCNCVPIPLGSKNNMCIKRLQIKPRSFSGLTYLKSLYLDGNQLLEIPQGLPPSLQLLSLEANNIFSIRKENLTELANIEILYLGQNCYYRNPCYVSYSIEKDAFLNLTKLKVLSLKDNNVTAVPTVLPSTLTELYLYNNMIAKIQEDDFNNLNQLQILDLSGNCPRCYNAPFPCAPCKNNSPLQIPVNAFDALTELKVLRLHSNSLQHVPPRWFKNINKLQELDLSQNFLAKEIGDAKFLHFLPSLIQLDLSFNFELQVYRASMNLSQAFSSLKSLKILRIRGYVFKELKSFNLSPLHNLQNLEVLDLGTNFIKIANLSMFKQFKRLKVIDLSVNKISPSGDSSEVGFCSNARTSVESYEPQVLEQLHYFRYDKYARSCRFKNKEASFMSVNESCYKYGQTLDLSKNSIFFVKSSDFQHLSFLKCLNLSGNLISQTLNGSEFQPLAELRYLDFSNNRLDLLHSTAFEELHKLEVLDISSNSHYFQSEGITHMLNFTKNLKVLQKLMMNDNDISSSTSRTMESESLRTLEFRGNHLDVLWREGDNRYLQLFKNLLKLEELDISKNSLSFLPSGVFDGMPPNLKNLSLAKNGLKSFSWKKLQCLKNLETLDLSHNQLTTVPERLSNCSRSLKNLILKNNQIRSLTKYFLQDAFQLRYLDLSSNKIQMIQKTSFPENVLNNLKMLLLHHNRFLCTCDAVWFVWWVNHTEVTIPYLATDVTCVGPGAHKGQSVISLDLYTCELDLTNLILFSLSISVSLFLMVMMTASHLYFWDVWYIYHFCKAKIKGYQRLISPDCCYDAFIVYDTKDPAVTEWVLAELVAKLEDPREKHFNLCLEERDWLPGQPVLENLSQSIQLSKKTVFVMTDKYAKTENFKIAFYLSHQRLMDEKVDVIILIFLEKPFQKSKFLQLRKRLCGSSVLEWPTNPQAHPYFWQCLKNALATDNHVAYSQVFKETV
Sequence of human TLR9 (Q9NR96 26-1032): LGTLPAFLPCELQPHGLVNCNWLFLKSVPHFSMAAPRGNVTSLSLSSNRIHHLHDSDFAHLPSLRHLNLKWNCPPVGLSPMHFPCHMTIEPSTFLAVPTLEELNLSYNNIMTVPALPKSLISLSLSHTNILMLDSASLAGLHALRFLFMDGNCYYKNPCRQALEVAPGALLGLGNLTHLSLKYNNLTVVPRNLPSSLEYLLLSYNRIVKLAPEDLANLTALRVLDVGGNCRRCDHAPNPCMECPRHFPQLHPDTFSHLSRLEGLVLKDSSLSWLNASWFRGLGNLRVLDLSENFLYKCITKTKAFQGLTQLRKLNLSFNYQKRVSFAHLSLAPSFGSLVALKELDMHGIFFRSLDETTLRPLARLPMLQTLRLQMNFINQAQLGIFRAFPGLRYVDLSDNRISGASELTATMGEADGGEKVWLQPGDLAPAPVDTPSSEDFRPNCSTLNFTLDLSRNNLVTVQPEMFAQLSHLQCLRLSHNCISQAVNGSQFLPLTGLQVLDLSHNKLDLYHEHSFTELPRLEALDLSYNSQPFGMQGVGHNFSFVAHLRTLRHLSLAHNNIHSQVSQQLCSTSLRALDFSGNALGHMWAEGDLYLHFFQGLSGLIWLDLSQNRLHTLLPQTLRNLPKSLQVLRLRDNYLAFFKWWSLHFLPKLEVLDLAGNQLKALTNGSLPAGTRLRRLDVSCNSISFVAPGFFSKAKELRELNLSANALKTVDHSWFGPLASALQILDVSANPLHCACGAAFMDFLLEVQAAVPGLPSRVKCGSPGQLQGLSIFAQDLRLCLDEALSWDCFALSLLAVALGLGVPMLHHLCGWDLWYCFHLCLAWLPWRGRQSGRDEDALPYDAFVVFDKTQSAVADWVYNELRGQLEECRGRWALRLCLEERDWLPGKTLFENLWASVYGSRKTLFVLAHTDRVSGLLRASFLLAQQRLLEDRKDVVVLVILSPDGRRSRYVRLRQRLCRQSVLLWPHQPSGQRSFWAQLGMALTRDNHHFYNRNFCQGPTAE

As to `Cc1cc(-c2[nH]c3ccc(C(=O)NC4CCN(C(C)C)CC4)cc3c2CC(F)F)cc(C)n1` [Example 123, 3-(2,2-difluoroethyl)-2-(2,6-dimethylpyridin-4-yl)-N-(1-isopropylpiperidin-4-yl)-1H-indole-5-carboxamide], the IC50 worked out at 75 nM in assay [1], 231 nM in assay [2] and 83 nM in assay [3].
For `Cc1cc(-c2[nH]c3ccc(C(=O)N4CCCN(C)CC4)cc3c2CC(F)F)cc(C)n1` [Example 124, (3-(2,2-difluoroethyl)-2-(2,6-dimethylpyridin-4-yl)-1H-indol-5-yl)(4-methyl-1,4-diazepan-1-yl)methanone], the IC50 amounted to 36 nM in assay [1], 1120 nM in assay [2] and 128 nM in assay [3].
For `CCN(CCN(C)C)C(=O)c1ccc2[nH]c(-c3cc(C)nc(C)c3)c(CC(F)F)c2c1` [Example 125, 3-(2,2-difluoroethyl)-N-(2-(dimethylamino)ethyl)-2-(2,6-dimethylpyridin-4-yl)-N-ethyl-1H-indole-5-carboxamide], the half-maximal inhibitory concentration (IC50) is 23 nM in assay [1], 727 nM in assay [2] and 19 nM in assay [3].
In the case of `COc1cc(-c2[nH]c3ccc(C(=O)N4CC5CNCC5C4)cc3c2C(C)C)cn2ncnc12` (stereo not drawn) [Example 126, (hexahydropyrrolo[3,4-c]pyrrol-2(1H)-yl)(3-isopropyl-2-(8-methoxy-[1,2,4]triazolo[1,5-a]pyridin-6-yl)-1H-indol-5-yl)methanone], the figures for the IC50 in assay [1], in assay [2] and in assay [3] were 233 nM, 2410 nM and 29 nM, respectively.
The corresponding values for `COc1cc(-c2[nH]c3ccc(C(=O)NC4CCN(C(C)C)CC4)cc3c2C(C)C)cn2ncnc12` [Example 127, 3-isopropyl-N-(1-isopropylpiperidin-4-yl)-2-(8-methoxy-[1,2,4]triazolo[1,5-a]pyridin-6-yl)-1H-indole-5-carboxamide] are 1.7 nM, 916 nM and 2.5 nM.
In the case of `COc1cc(-c2[nH]c3ccc(C(=O)N4CCCN(C)CC4)cc3c2C(C)C)cn2ncnc12` [Example 128, (3-isopropyl-2-(8-methoxy-[1,2,4]triazolo[1,5-a]pyridin-6-yl)-1H-indol-5-yl)(4-methyl-1,4-diazepan-1-yl)methanone], the IC50 stood at 2.6 nM in assay [1], 1400 nM in assay [2] and 3.8 nM in assay [3].
For `COc1cc(-c2[nH]c3ccc(C(=O)N(C)CCN(C)C)cc3c2C(C)C)cn2ncnc12` [Example 129, N-(2-(dimethylamino)ethyl)-3-isopropyl-2-(8-methoxy-[1,2,4]triazolo[1,5-a]pyridin-6-yl)-N-methyl-1H-indole-5-carboxamide], the IC50 in assay [1] was 2.3 nM; in assay [2] it was 3350 nM; in assay [3], 1.8 nM.
Take `Cc1cc(-c2[nH]c3ccc(C(C)C(=O)NC[C@@H](F)C(C)(C)O)cc3c2C(C)C)ccn1` (stereo partly drawn) [Example 130, N—((R)-2-fluoro-3-hydroxy-3-methylbutyl)-2-(3-isopropyl-2-(2-methylpyridin-4-yl)-1H-indol-5-yl)propanamide]: the IC50 was 818 nM in assay [1], over 50000 nM in assay [2] and 748 nM in assay [3].
Consider `Cc1cc(-c2[nH]c3ccc(C(C)C(=O)NCC(C)(C)O)cc3c2C(C)C)ccn1` (stereo not drawn) [Example 131, N-(2-hydroxy-2-methylpropyl)-2-(3-isopropyl-2-(2-methylpyridin-4-yl)-1H-indol-5-yl)propanamide], for which the IC50 was 979 nM in assay [1], over 50000 nM in assay [2] and 657 nM in assay [3].
For the compound `Cc1cc(-c2[nH]c3ccc(C(C)(C)C(=O)NC[C@@H](F)C(C)(C)O)cc3c2C(C)C)ccn1` [Example 133, (R)—N-(2-fluoro-3-hydroxy-3-methylbutyl)-2-(3-isopropyl-2-(2-methylpyridin-4-yl)-1H-indol-5-yl)-2-methylpropanamide], the IC50 is 399 nM in assay [1], over 50000 nM in assay [2] and 284 nM in assay [3].
The corresponding values for `Cc1cc(-c2[nH]c3ccc(C(C)(C)C(=O)NCCN)cc3c2C(C)C)ccn1` [Example 134, N-(2-aminoethyl)-2-(3-isopropyl-2-(2-methylpyridin-4-yl)-1H-indol-5-yl)-2-methylpropanamide] are 110 nM, 1090 nM and 63 nM.
With `Cc1cc(-c2[nH]c3ccc(C(C)(C)C(=O)NCCC(C)(C)O)cc3c2C(C)C)ccn1` [Example 135, N-(3-hydroxy-3-methylbutyl)-2-(3-isopropyl-2-(2-methylpyridin-4-yl)-1H-indol-5-yl)-2-methylpropanamide], the results for the IC50 in assay [1], in assay [2] and in assay [3] were 551 nM, over 50000 nM and 202 nM, respectively.
As to `CC(C)c1c(-c2ccnc3[nH]ncc23)[nH]c2ccc(CCC(=O)N3CCOCC3)cc12` [Example 136, 3-(3-isopropyl-2-(1H-pyrazolo[3,4-b]pyridin-4-yl)-1H-indol-5-yl)-1-morpholinopropan-1-one], the figures for the IC50 in assay [1], in assay [2] and in assay [3] were 411 nM, over 50000 nM and 1760 nM, respectively.
`COc1ccc(-c2[nH]c3ccc(CCC(=O)N4CC5CNCC5C4)cc3c2C(C)C)cc1OC` (stereo not drawn) [Example 137, 3-(2-(3,4-dimethoxyphenyl)-3-isopropyl-1H-indol-5-yl)-1-(hexahydropyrrolo[3,4-c]pyrrol-2(1H)-yl)propan-1-one]: the IC50 in assay [1] is 32 nM; in assay [2], 840 nM; in assay [3], 109 nM.
As to `Cc1cc(-c2[nH]c3ccc(C(C)(C)C(=O)N[C@H]4CCNC4)cc3c2C(C)C)ccn1` [Example 138, (S)-2-(3-isopropyl-2-(2-methylpyridin-4-yl)-1H-indol-5-yl)-2-methyl-N-(pyrrolidin-3-yl)propanamide], the IC50 in assay [1] was found to be 64 nM; in assay [2], 1170 nM; in assay [3], 52 nM.
`Cc1cc(-c2[nH]c3ccc(C(C)(C)C(=O)NC4CCN(C(C)C)CC4)cc3c2C(C)C)ccn1` [Example 139, 2-(3-isopropyl-2-(2-methylpyridin-4-yl)-1H-indol-5-yl)-N-(1-isopropylpiperidin-4-yl)-2-methylpropanamide]: the IC50 stood at 154 nM in assay [1], 1140 nM in assay [2] and 25 nM in assay [3].
Consider `Cc1cc(-c2[nH]c3ccc(C(C)(C)C(=O)N[C@@H]4CCCNC4)cc3c2C(C)C)ccn1` [Example 140, (R)-2-(3-isopropyl-2-(2-methylpyridin-4-yl)-1H-indol-5-yl)-2-methyl-N-(piperidin-3-yl)propanamide], for which the IC50 in assay [1] came to 32 nM; in assay [2] it was 1220 nM; in assay [3] it was 40 nM.
As to `Cc1cc(-c2[nH]c3ccc(C(C)(C)C(=O)N[C@@H]4CCNC4)cc3c2C(C)C)ccn1` [Example 141, (R)-2-(3-isopropyl-2-(2-methylpyridin-4-yl)-1H-indol-5-yl)-2-methyl-N-(pyrrolidin-3-yl)propanamide], the results for the IC50 in assay [1], in assay [2] and in assay [3] were 68 nM, 895 nM and 58 nM, respectively.
With `Cc1cc(-c2[nH]c3ccc(C(C)(C)C(=O)NC4CN5CCC4CC5)cc3c2C(C)C)ccn1` (stereo not drawn) [Example 142, 2-(3-isopropyl-2-(2-methylpyridin-4-yl)-1H-indol-5-yl)-2-methyl-N-(quinuclidin-3-yl)propanamide], the values for the IC50 in assay [1], in assay [2] and in assay [3] were 120 nM, 790 nM and 16 nM, respectively.
As for `Cc1cc(-c2[nH]c3ccc(C(C)(C)C(=O)NC4CCNCC4)cc3c2C(C)C)ccn1` [Example 143, 2-(3-isopropyl-2-(2-methylpyridin-4-yl)-1H-indol-5-yl)-2-methyl-N-(piperidin-4-yl)propanamide], the IC50 in assay [1] is 147 nM; in assay [2], 562 nM; in assay [3] it was 35 nM.
In the case of `Cc1cc(-c2[nH]c3ccc(C(C)(C)C(=O)NC4CCC5CNCC54)cc3c2C(C)C)ccn1` (stereo not drawn) [Example 144, 2-(3-isopropyl-2-(2-methylpyridin-4-yl)-1H-indol-5-yl)-2-methyl-N-(octahydrocyclopenta[c]pyrrol-4-yl)propanamide], the IC50 was 64 nM in assay [1], 677 nM in assay [2] and 26 nM in assay [3].
The matching figures for `Cc1cc(-c2[nH]c3ccc(C(C)(C)C(=O)NC4CCN(C5CCNC5)CC4)cc3c2C(C)C)ccn1` (stereo not drawn) [Example 145, 2-(3-isopropyl-2-(2-methylpyridin-4-yl)-1H-indol-5-yl)-2-methyl-N-(1-(pyrrolidin-3-yl)piperidin-4-yl)propanamide]: 783 nM, 4500 nM and 554 nM.
Regarding `Cc1cc(-c2[nH]c3ccc(C(C)(C)C(=O)NC4CCC5CNCC54)cc3c2C(C)C)ccn1` (stereo not drawn) [Example 146, 2-(3-isopropyl-2-(2-methylpyridin-4-yl)-1H-indol-5-yl)-2-methyl-N-(octahydrocyclopenta[c]pyrrol-4-yl)propanamide], the IC50 stood at 122 nM in assay [1], 979 nM in assay [2] and 160 nM in assay [3].
The matching figures for `Cc1cc(-c2[nH]c3ccc(C(C)(C)C(=O)NC4CCC5CNCC54)cc3c2C(C)C)ccn1` (stereo not drawn) [Example 147, 2-(3-isopropyl-2-(2-methylpyridin-4-yl)-1H-indol-5-yl)-2-methyl-N-(octahydrocyclopenta[c]pyrrol-4-yl)propanamide]: 92 nM, 1210 nM and 109 nM.
Turning to `Cc1cc(-c2[nH]c3ccc(C(C)(C)C(=O)N4CC5CC(C4)C5N)cc3c2C(C)C)ccn1` (stereo not drawn) [Example 148, 1-(6-amino-3-azabicyclo[3.1.1]heptan-3-yl)-2-(3-isopropyl-2-(2-methylpyridin-4-yl)-1H-indol-5-yl)-2-methylpropan-1-one], the IC50 in assay [1] was 79 nM; in assay [2] it was 2640 nM; in assay [3], 88 nM.
